Source: patent publication US20100215759A1 (priority 2009, published 2010)

How the values were obtained:
CB2 receptors = target: T1, CB2 receptors (Mus musculus, UniProt P47936); assay: biochemical; type: binding
T1 construct: the complete brain (excluding the cerebellum) and the spleen were quickly dissected and kept in ice; from tissue; host or cells: mouse spleen, membrane preparation
Description: (§1) The affinity of the synthesized compounds towards the CB1 and CB2 cannabinoidergic receptors was evaluated in vitro by radioreceptor binding studies using the method reported hereinunder.
(§2) The technique of the receptor binding allows to establish if, and with which affinity and specificity, a specific compound binds to a particular receptor. To evaluate the affinity of a specific compound to a particular receptor it is necessary to challenge in a particular tissue preparation wherein those specific receptors are present the compound to be tested with a radioactive labelled compound whose affinity for the same receptors is known. […] The amount of radioactivity present in the receptor-compound complex allows furthermore to estimate with great accuracy the amount of compound bound to the receptor. By said method it is therefore possible to establish quickly the affinity of a new compound towards a specific receptor and thus to determine its pharmacological activity. With the same experimental protocol it is possible to evaluate the affinity of the compound towards other receptors and thus establish its specificity degree toward said other receptors.
(§3) The food and water were ad libitum.
(§4) The procedure adopted, based on the use of the compound [^3H]-CP-55,940 (New England Nuclear, Boston, Mass., USA), requires the use of the mouse brain as biological tissue for the evaluation of the affinity towards the CB1 receptors and of the mouse spleen for the affinity assay for the CB2 receptors.
(§5) The animals were sacrificed by cervical dislocation and the complete brain (excluding the cerebellum) and the spleen were quickly dissected and kept in ice.
(§6) The tissue was homogenized in 15 volumes (weight/volume) of TME buffer (50 Mm Tris, 1 mM EDTA and 3 mM MgCl2, pH 7.4) by an Ultra-Turrax and subsequently centrifuged for 10 minutes at 1086×g in a centrifuge refrigerated at 4° C. The recovered supernatant was centrifuged at 45,000×g for 30 minutes at 4° C. by using a Beckman SW41 rotor and the obtained pellet was resuspended in 50 volumes of TME.
(§7) The thus obtained membranes (50-80 μg of proteins) were incubated in the presence of 1 nM of [^3H]-CP55.940 for 1 hour at 30° C. in a final volume of 0.5 ml of TME buffer containing 5 mg/ml of bovine serum albumin (BSA). The non specific binding was measured in the presence of CP55.940 at a 1 μM concentration.
(§8) All the experiments were carried out in polypropylene test tubes pretreated with Sigma-Cote (Sigma Chemical Co. Ltd., Poole, UK) for reducing non specific binding.
(§9) In order to determine the competitive inhibition binding curves, eight different concentrations of each compound were used.
(§10) Incubation was stopped by addition of TME buffer (at 4° C.) containing 5 mg/ml of BSA, and subsequent filtration under vacuum by Whatman GFC filters pretreated with 0.5% of polyethylamine (PEI) and by using a filtering device (Brandell, Gaithersburg, Md., USA). The filters were washed 3 times with […] of Tris HCl buffer (pH 7.4, 4° C.) containing 1 mg/ml of BSA and separately placed in plastic vials containing 4 ml of scintillating liquid (Ultima Gold MV, Packard).
(§11) The radioactivity present in the filters was determined by a scintillator spectrophotometer (Tricarb® 2100, Packard, Meridien, USA).
(§12) Protein determination was carried out by the Bradford method by using the protocol and the reactants supplied by Bio-Rad (Milano, Italy).

CB1 receptors = target: T2, CB1 receptors (Mus musculus, UniProt P47746); assay: biochemical; type: binding
T2 construct: the complete brain (excluding the cerebellum) and the spleen were quickly dissected and kept in ice; from tissue; host or cells: mouse brain (excluding cerebellum), membrane preparation
Description: as §1, §2, §3, §4, §5, §6, §7, §8, §9, §10, §11, §12

[1] = tested on: mouse deferent vessel (vas deferens); assay: Ex-vivo model: electrically induced contractions of the isolated deferent vessel (vas deferens); design: species or system albino CD1 mice; details: for Activity compared with the compounds of the invention: FIG. 2; for Inhibition of the contractions induced by the electric stimulus: concentrations lower than or equal to 1×10^−6 M
Text: The use of the isolated deferent vessel organ, as a highly sensitive basic system in an ex-vivo model for evaluating the activity of agonist CB1 compounds, has been described by Pertwee et al. in Br. J. Pharmacol., 105:980-4, 1992. This model has been used also to evaluate the properties of antagonist CB1 compounds and to distinguish antagonist CB1 derivatives from inverse agonist CB1 compounds (Rinaldi-Carmona et al., FEBS Lett., 350:240-4, 1994; Pertwee et al., Eur. J. Pharmacol., 456:99-106, 2002). […] This effect is correlated to the action on the prejunctional neuronal CB1 receptors with the consequent release inhibition, induced by electric stimuli, of contractile neurotransmitters (noradrenaline and ATP) (Schlicker and Kathmann, Trends Pharmacol. Sci., 22:565-72, 2001). The inhibition of the contractions induced by the electric stimulus on the deferent vessel in the presence of agonist (or partial agonist) CB1 compounds are expressed as % of contraction inhibition. Said % contraction inhibition is calculated by the ratio between the contraction amplitude determined in the presence of a given concentration of the compound and that detected in its absence (basal value). The curve of the “% of contraction inhibition” as a function of the logarithm of the concentration of agonist (or partial agonist) CB1 compounds, is sigmoidal. The use of the model for the evaluation of antagonist CB1 compounds is based on the evaluation of their efficacy in inhibiting the action of the deferent vessel of agonist (or partial agonist) CB1 compounds. The inhibition is expressed by a shifting towards the right of the curves % of inhibition of contractions/logarithm of the concentration of the agonist CB1 compound, with increasing the concentration of the antagonist CB1 compound.
As reported in the literature, the experimentation has been carried out by using albino CD1 mice weighing 30-40 grams. The mice deferent vessel was recovered and transferred into an instrument for separated organs supplied by the Firm Ugo Basile (Comerio, Italy). The initial tension was of 0.5 g. The procedure adopted is reported in Pertwee et al. in Br. J. Pharmacol., 110:1483-1490, 1993. In particular the procedure and instruments as described by S. Ruiu et al. in J.P.E.T., Vol. 306, 2003, 363-370, have been used.
In a subsequent experiment it was shown that the compound activity was antagonized by the antagonist CB1 compound N-piperidinyl-[8-chloro-1-(2,4-dichlorophenyl)-1,4,5,6-tetrahydrobenzo[6,7]cyclohepta[1,2-c]pyrazol-3-carboxamide], described by S. Ruiu et al. in J.P.E.T., Vol. 306, 2003, 363-370. The experiment was carried out by adding the antagonist (concentration in bath 1 nM) 20 minutes before the first addition of the compound of the invention.

old DBA/2J mice = assay: Reduction of intraocular pressure (IOP) after application to the eye, TONOLab tonometer; type: in vivo; details: for Intraocular Pressure Decrease: versus basal IOP; for Reduction of intraocular pressure: dose 100 μg
Text: The main risk factor in the glaucoma is represented by the high intraocular pressure (IOP). See for instance: Libby R. T. et al., Vis Neurosci. 2005 Sep.-Oct., 22(5):637-48 and Tomida I. et al., Br. J. Opthalmol. 2004 May, 88(5):708-13.
By using the animal model of old DBA/2J mice (see above) it has been evaluated the efficacy of the compound obtained in example 3.1 in reducing the IOP. As said, this compound has a good affinity towards the CB1 receptors in vitro (example 4) and a CB1 agonist action in vivo (example 5). The intraocular pressure has been determined by a TONOLab Tonometer (Tiolat Oy), as reported by M. E. Pease et al. in J. Glaucoma, 2006 December, 15(6):512-519. The compound was dispersed in the commercial emulsion Tocrisolve™, (Tocris), at a concentration of […] and applied to the eye of old DBA/2J mice (8-10 month age; basal IOP comprised between 19.0 and 22.5 mmHg). The applied emulsion volumes were such that the compound doses resulted, respectively, of 100 μg or 50 μg. WIN 55212-2 was dispersed in Tocrisolve™at the concentration of 5 mg/ml and was the reference cannabinoidergic compound. The determination of the ocular pressure was carried out every 30 minutes up to two hours starting from the administration. The obtained results (average of 6 measurements at each time for experimental groups of 8-10 animals for group/dose) are reported in Table 3. IOP decrease was expressed in percent with respect to the basal value.

patients = details: cited from earlier work
[2] = 50 μg to the eye in Tocrisolve, 30 minutes
[3] = 50 μg to the eye in Tocrisolve, 60 minutes
[4] = 50 μg to the eye in Tocrisolve, 90 minutes
[5] = 50 μg to the eye in Tocrisolve, 120 minutes
[6] = 100 μg to the eye in Tocrisolve, 30 minutes
[7] = 100 μg to the eye in Tocrisolve, 60 minutes
[8] = 100 μg to the eye in Tocrisolve, 90 minutes
[9] = 100 μg to the eye in Tocrisolve, 120 minutes

T2 sequence (P47746 whole entry): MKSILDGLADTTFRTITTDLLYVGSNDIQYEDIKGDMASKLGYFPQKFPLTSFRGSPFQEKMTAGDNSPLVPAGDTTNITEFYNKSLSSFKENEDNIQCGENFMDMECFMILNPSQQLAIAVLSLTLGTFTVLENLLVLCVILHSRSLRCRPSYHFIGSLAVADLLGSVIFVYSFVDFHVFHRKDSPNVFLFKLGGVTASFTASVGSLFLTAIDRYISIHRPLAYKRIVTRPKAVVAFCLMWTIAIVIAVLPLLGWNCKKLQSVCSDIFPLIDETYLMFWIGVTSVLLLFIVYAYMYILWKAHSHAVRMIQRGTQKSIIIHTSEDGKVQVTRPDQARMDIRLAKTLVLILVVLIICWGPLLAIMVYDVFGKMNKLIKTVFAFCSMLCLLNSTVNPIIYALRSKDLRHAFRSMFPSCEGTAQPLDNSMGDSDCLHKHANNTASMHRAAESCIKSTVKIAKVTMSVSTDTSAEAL
T1 sequence (P47936 whole entry): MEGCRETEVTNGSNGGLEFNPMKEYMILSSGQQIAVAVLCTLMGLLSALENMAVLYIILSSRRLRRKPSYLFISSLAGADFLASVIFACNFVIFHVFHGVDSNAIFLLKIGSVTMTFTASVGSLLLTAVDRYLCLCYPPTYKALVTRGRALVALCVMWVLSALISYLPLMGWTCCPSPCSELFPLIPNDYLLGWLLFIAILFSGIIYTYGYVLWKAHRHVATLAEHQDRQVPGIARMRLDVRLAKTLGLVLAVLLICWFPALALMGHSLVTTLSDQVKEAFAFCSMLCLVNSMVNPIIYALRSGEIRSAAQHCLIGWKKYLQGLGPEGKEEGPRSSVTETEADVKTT

## CC1(C)C2CCC(CNC(=O)c3nn(-c4ccc(Cl)cc4Cl)c4c3CCc3sc(-c5ccccc5)cc3-4)C1C2 (centres unmarked) [Example 3.6, N-myrtanyl-1-(2′,4′-dichlorophenyl)-7-phenyl-4,5-dihydro-1H-thieno[2,3-g]indazol-3-carboxamide]
CB2 receptors
  Ki: 4350 ± 251 nM
CB1 receptors
  Ki: 86.4 ± 20 nM

## Cc1cc2c(s1)-c1c(c(C(=O)NC3C4(C)CCC(C4)C3(C)C)nn1-c1ccc(Cl)cc1Cl)C2 (centres unmarked) [Compound (XD), N-fenchyl-1-(2′,4′-dichlorophenyl)-6-methyl-1,4-dihydro-thieno[3′,2′:4,5]cyclopenta[1,2-c]pyrazol-3-carboxamide]
[1]
  Activity compared with the compounds of the invention: lower than that of the compounds of the invention
  Inhibition of the contractions induced by the electric stimulus: able to significantly inhibit the contractions
Old DBA/2J mice; [2]
  Intraocular Pressure Decrease: 3.0%
Old DBA/2J mice; [3]
  Intraocular Pressure Decrease: 2.0%
Old DBA/2J mice; [4]
  Intraocular Pressure Decrease: 0.5%
Old DBA/2J mice; [5]
  Intraocular Pressure Decrease: 1.0%
Old DBA/2J mice; [6]
  Intraocular Pressure Decrease: 16.6%
Old DBA/2J mice; [7]
  Intraocular Pressure Decrease: 14.0%
Old DBA/2J mice; [8]
  Intraocular Pressure Decrease: 11.2%
Old DBA/2J mice; [9]
  Intraocular Pressure Decrease: 11.1%
Old DBA/2J mice
  Reduction of intraocular pressure: able to significantly reduce the intraocular pressure
CB2 receptors
  Ki: 15 ± 3.2 nM
CB1 receptors
  Ki: 43.3 ± 5.5 nM

## Cc1c(C(=O)NN2CCCCC2)nn(-c2ccc(Cl)cc2Cl)c1-c1ccc(Cl)cc1 [SR141716A]
patients; patients with metabolic syndrome and/or dyslipidemia
  Reduction of weight and metabolic and/or cardiovascular risk factors: effective in reducing both weight and metabolic and/or cardiovascular risk factors
patients; patients with type 2 diabetes
  Reduction of metabolic and/or cardiovascular risk factors: effectiveness of Rimonabant in reducing metabolic and/or cardiovascular risk factors has been shown

## Cc1cc2c(s1)-c1c(c(C(=O)NCC3CCC4CC3C4(C)C)nn1-c1ccc(Cl)cc1Cl)C2 (centres unmarked) [Example 3.8, N-myrtanyl-1-(2′,4′-dichlorophenyl)-6-methyl-1,4-dihydro-thieno[3′,2′:4,5]cyclopenta[1,2-c]pyrazole-3-carboxamide]
CB2 receptors
  Ki: 30.6 ± 7.2 nM
CB1 receptors
  Ki: 400 ± 71 nM

## Cc1cc2c(s1)-c1c(c(C(=O)NCC3CCC4CC3C4(C)C)nn1-c1ccc(F)cc1F)C2 (centres unmarked) [Example 3.2, N-myrtanyl-1-(2′,4′-difluorophenyl)-6-methyl-1,4-dihydrothieno[3′,2′:4,5]cyclopenta[1,2-c]pyrazol-3-carboxamide]
CB2 receptors
  Ki: 5.8 ± 1 nM
CB1 receptors
  Ki: 22.3 ± 25 nM

## Cc1ccc(Cn2nc(C(=O)NC3CC(C)CCC3C(C)C)c3c2-c2sc(C)cc2C3)cc1 (centres unmarked) [Compound (XC), N-menthyl-6-methyl-1-(4′-methylbenzyl)-1,4-dihydro-thieno[3′,2′:4,5]cyclopenta[1,2-c]pyrazol-3-carboxamide]
[1]
  Activity compared with the compounds of the invention: lower than that of the compounds of the invention
  Inhibition of the contractions induced by the electric stimulus: able to significantly inhibit the contractions
Old DBA/2J mice; [2]
  Intraocular Pressure Decrease: 2.9%
Old DBA/2J mice; [3]
  Intraocular Pressure Decrease: 2.2%
Old DBA/2J mice; [4]
  Intraocular Pressure Decrease: 0.8%
Old DBA/2J mice; [5]
  Intraocular Pressure Decrease: 1.5%
Old DBA/2J mice; [6]
  Intraocular Pressure Decrease: 22.2%
Old DBA/2J mice; [7]
  Intraocular Pressure Decrease: 22.4%
Old DBA/2J mice; [8]
  Intraocular Pressure Decrease: 25.0%
Old DBA/2J mice; [9]
  Intraocular Pressure Decrease: 16.7%
Old DBA/2J mice
  Reduction of intraocular pressure: able to significantly reduce the intraocular pressure
CB2 receptors
  Ki: 2.5 ± 0.3 nM
CB1 receptors
  Ki: 33 ± 8.2 nM

## Cc1cc2c(s1)-c1c(c(C(=O)CC3CCCCC3)nn1-c1ccc(Cl)cc1Cl)C2 [Example 3.15, 1-(2′,4′-dichlorophenyl)-6-methyl-3-(1-oxo-2-cyclohexyleth-1-yl)-1,4-dihydro-thieno[3′,2′:4,5]cyclopenta[1,2-c]pyrazole]
CB2 receptors
  Ki: 5.4 ± 1.4 nM
CB1 receptors
  Ki: 720 ± 139 nM

## CC1(C)C2CCC(CNC(=O)c3nn(-c4ccc(F)cc4F)c4c3Cc3cc(Br)sc3-4)C1C2 (centres unmarked) [Example 3.12, N-myrtanyl-6-bromo-1-(2′,4′-difluorophenyl)-1,4-dihydro-thieno[3′,2′:4,5]cyclopenta[1,2-c]pyrazole-3-carboxamide]
CB2 receptors
  Ki: 9.3 ± 1.5 nM
CB1 receptors
  Ki: 160 ± 2.5 nM
